The target of experiment [1] is T1, 5-hydroxytryptamine receptor 2C (Homo sapiens, UniProt P28335).
T1 sequence (P28335 whole entry): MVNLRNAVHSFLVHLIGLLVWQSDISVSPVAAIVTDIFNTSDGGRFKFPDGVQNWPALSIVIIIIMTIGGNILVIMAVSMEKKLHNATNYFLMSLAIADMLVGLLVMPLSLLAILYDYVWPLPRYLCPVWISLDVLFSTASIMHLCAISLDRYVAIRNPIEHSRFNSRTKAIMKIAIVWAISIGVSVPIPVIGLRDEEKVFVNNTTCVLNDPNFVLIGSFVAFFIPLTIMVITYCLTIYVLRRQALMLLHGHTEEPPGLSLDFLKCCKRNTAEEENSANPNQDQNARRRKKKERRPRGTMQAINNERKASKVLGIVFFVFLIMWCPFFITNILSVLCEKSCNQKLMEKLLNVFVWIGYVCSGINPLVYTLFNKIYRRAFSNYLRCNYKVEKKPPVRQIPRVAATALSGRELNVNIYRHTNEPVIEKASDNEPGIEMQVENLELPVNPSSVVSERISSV
In words: Positive allosteric modulation of 5-HT2C receptor (unknown origin) assessed as increase in 5-HT-induced displacement of [3H]mesulergine by measuring 5-HT Ki at 20 uM (Rvb = 159 nM). Background: In a radioligand displacement assay an active substance lowers the binding of a labelled ligand.

The target of experiment [2] is T2, Muscarinic acetylcholine receptor M1 (Homo sapiens, UniProt P11229).
T2 sequence (P11229 whole entry): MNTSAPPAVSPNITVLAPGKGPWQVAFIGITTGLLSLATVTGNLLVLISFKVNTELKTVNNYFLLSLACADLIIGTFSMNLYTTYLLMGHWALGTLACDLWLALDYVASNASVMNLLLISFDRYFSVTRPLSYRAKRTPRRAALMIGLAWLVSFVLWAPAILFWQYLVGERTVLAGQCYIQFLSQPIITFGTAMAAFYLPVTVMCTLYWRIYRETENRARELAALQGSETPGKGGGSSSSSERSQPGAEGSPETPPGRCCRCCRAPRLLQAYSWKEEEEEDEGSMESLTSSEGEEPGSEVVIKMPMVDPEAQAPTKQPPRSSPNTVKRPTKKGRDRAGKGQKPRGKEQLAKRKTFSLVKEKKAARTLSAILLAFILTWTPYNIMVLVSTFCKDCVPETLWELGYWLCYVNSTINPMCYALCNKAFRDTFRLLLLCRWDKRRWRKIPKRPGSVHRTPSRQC
In words: Positive allosteric modulation of M1 AchR (unknown origin).

In the case of `CCCCCCCCCCC[C@@H]1CCN[C@H](C(=O)N[C@@H]([C@H]2O[C@H](SC)[C@H](O)[C@@H](O)[C@H]2O)[C@H](C)Cl)C1`, the Ki in experiment [1] is 6.4 nM. `Cn1cc(-c2ccc(Cn3cc(C(=O)N[C@H]4CCCC[C@@H]4O)c4c(F)cc(F)cc43)cn2)cn1`: the EC50 in experiment [2] was 210 nM.

Broadly, the Ki is a dissociation constant, usually derived from enzyme kinetics or from competition with a known ligand. By EC50 is commonly meant the concentration needed to bring the measured effect to its halfway point.

(Values after BindingDB's records for doi:10.1021/acs.jmedchem.8b00875 (2019).)
